According to ChEMBL document CHEMBL1201862, “PubChem BioAssay data set” (2004):
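Compound exposure: 48 hours, 5 concentrations, 96-well plates. GI50: concentration for 50% inhibition of growth.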 The source made the active and inactive calls. Rule as the data show it: active = GI50 up to about 1.1 µM and inactive = higher.

Assays:
Experiment in all cases: NCI anticancer screen, dose series, 48 h
[1] = tested on: ACHN
[2] = tested on: OVCAR-5
[3] = tested on: SNB-19
[4] = tested on: SNB-75
[5] = tested on: EKVX
[6] = tested on: HCT-15
[7] = tested on: A498
[8] = tested on: IGROV-1
[9] = tested on: TK-10
[10] = tested on: SK-MEL-5
[11] = tested on: OVCAR-8
[12] = tested on: MOLT-4
[13] = tested on: LOX IMVI
[14] = tested on: SF-268
[15] = tested on: HCT-116
[16] = tested on: UACC-257
[17] = tested on: SN12C
[18] = tested on: OVCAR-4
[19] = tested on: UO-31
[20] = tested on: SK-OV-3

Row | SMILES | GI50 [1] | GI50 [2] | GI50 [3] | GI50 [4] | GI50 [5] | GI50 [6] | GI50 [7] | GI50 [8] | GI50 [9] | GI50 [10] | GI50 [11] | GI50 [12] | GI50 [13] | GI50 [14] | GI50 [15] | GI50 [16] | GI50 [17] | GI50 [18] | GI50 [19] | GI50 [20]
1 | O=C(N/C(=C\c1ccc(/C=C(\NC(=O)c2ccccc2)c2nc3ccccc3s2)cc1)c1nc2ccccc2s1)c1ccccc1 | 4.59 µM (inactive) | 17.2 µM (inactive) | 4.09 µM (inactive) | 5.48 µM (inactive) | 1.83 µM (inactive) | 4.6 µM | 17.1 µM (inactive) | 3.85 µM (inactive) | 12.7 µM (inactive) | 4.88 µM (inactive) | 2.34 µM (inactive) | 4.99 µM (inactive) | 4.21 µM (inactive) | 6.3 µM (inactive) | 8.2 µM (inactive) | 5.18 µM (inactive) | 3.99 µM (inactive) | 5.08 µM (inactive) | 2.86 µM (inactive) | –
2 | N#Cc1ccc(OCc2ccc3nc(-c4ccccc4)c(Cl)nc3c2)cc1 | 43.6 µM (inactive) | > 100 µM (inactive) | > 100 µM (inactive) | > 100 µM (inactive) | > 100 µM (inactive) | > 100 µM | > 100 µM (inactive) | > 100 µM (inactive) | 58.1 µM (inactive) | > 100 µM (inactive) | > 100 µM (inactive) | > 100 µM (inactive) | > 100 µM (inactive) | > 100 µM (inactive) | > 100 µM (inactive) | > 100 µM (inactive) | > 100 µM (inactive) | > 100 µM (inactive) | > 100 µM (inactive) | –
3 | CCCCCCCCCCCCO[PH](=O)OCCCCCCCCCCCC | > 100 µM (inactive) | > 100 µM (inactive) | > 100 µM (inactive) | > 100 µM (inactive) | > 100 µM (inactive) | > 100 µM | > 100 µM (inactive) | > 100 µM (inactive) | 34.4 µM (inactive) | > 100 µM (inactive) | > 100 µM (inactive) | > 100 µM (inactive) | – | > 100 µM (inactive) | > 100 µM (inactive) | 28.3 µM (inactive) | > 100 µM (inactive) | > 100 µM (inactive) | > 100 µM (inactive) | > 100 µM (inactive)
4 | N=C(N)NS(=O)(=O)c1ccc(NNc2c3ccccc3nc3c(C(=O)Nc4ccc(S(=O)(=O)Nc5ncccn5)cc4)cccc23)cc1 | 31 µM (inactive) | 74.8 µM (inactive) | 50.1 µM (inactive) | > 100 µM (inactive) | 31.8 µM (inactive) | 34.1 µM | > 100 µM (inactive) | 18.2 µM (inactive) | – | 26.6 µM (inactive) | 29.4 µM (inactive) | 38.9 µM (inactive) | – | 47.2 µM (inactive) | 28.4 µM (inactive) | 66.7 µM (inactive) | 42.2 µM (inactive) | 29.2 µM (inactive) | 22.4 µM (inactive) | –
5 | O=[N+]([O-])c1ccc2nc(/C(=N/Nc3ccccc3)C(O)c3ccco3)c(O)nc2c1 (configuration not stated) | > 100 µM (inactive) | – | > 100 µM (inactive) | > 100 µM (inactive) | 39 µM (inactive) | > 100 µM | > 100 µM (inactive) | > 100 µM (inactive) | – | 44.5 µM (inactive) | > 100 µM (inactive) | > 100 µM (inactive) | 72.4 µM (inactive) | 25.4 µM (inactive) | > 100 µM (inactive) | > 100 µM (inactive) | > 100 µM (inactive) | > 100 µM (inactive) | 86.5 µM (inactive) | –
6 | N#Cc1c(N)nc(-c2ccc(Cl)cc2)c2c1-c1ccccc1S(=O)(=O)CC2 | > 100 µM (inactive) | > 100 µM (inactive) | 29.1 µM (inactive) | > 100 µM (inactive) | – | > 100 µM | > 100 µM (inactive) | > 100 µM (inactive) | > 100 µM (inactive) | > 100 µM (inactive) | 34 µM (inactive) | – | > 100 µM (inactive) | 53.6 µM (inactive) | > 100 µM (inactive) | > 100 µM (inactive) | 53.7 µM (inactive) | 23.2 µM (inactive) | > 100 µM (inactive) | –
7 | CCOC(=O)c1csc(C(CSCc2ccc(OC)cc2)N2C(=O)c3ccccc3C2=O)n1 (configuration not stated) | > 100 µM (inactive) | > 100 µM (inactive) | > 100 µM (inactive) | – | > 100 µM (inactive) | 62.7 µM | > 100 µM (inactive) | > 100 µM (inactive) | > 100 µM (inactive) | > 100 µM (inactive) | > 100 µM (inactive) | 31.5 µM (inactive) | 37.6 µM (inactive) | > 100 µM (inactive) | 49.1 µM (inactive) | > 100 µM (inactive) | > 100 µM (inactive) | > 100 µM (inactive) | > 100 µM (inactive) | > 100 µM (inactive)
8 | CNc1cccc2c1C(C)C[C@]1(C)C(=O)Nc3ccccc3[C@H]21 (some centres not stated) | 23.1 µM (inactive) | 31.1 µM (inactive) | 23 µM (inactive) | 12.1 µM (inactive) | 41.7 µM (inactive) | 39.4 µM | 24 µM (inactive) | 35.8 µM (inactive) | 13.8 µM (inactive) | 43.8 µM (inactive) | 19.1 µM (inactive) | 32.8 µM (inactive) | 15.8 µM (inactive) | 34 µM (inactive) | 18.7 µM (inactive) | 13.4 µM (inactive) | 21 µM (inactive) | 18.1 µM (inactive) | 23.1 µM (inactive) | –
9 | O=C(Nc1nc(C23CC4CC(CC(C4)C2)C3)cs1)c1cc2c(ccc3ccccc32)oc1=O | > 100 µM (inactive) | > 100 µM (inactive) | > 100 µM (inactive) | – | > 100 µM (inactive) | > 100 µM | > 100 µM (inactive) | > 100 µM (inactive) | > 100 µM (inactive) | > 100 µM (inactive) | > 100 µM (inactive) | > 100 µM (inactive) | > 100 µM (inactive) | > 100 µM (inactive) | > 100 µM (inactive) | > 100 µM (inactive) | > 100 µM (inactive) | > 100 µM (inactive) | > 100 µM (inactive) | –
10 | Nn1c(-c2ccccc2)nc2ccc(Br)cc2c1=O | 34.8 µM (inactive) | > 100 µM (inactive) | 95.3 µM (inactive) | > 100 µM (inactive) | 31.9 µM (inactive) | 40.8 µM | 70.5 µM (inactive) | 44.8 µM (inactive) | > 100 µM (inactive) | 53.1 µM (inactive) | 35.4 µM (inactive) | 17.9 µM (inactive) | – | 30.7 µM (inactive) | 35.3 µM (inactive) | > 100 µM (inactive) | 42.7 µM (inactive) | 28.6 µM (inactive) | 24.4 µM (inactive) | 61.5 µM (inactive)
11 | COc1cc(C2c3cc4c(cc3OC(N3CCOCC3)C2C)OCO4)ccc1O (configuration not stated) | 21.2 µM (inactive) | > 76.2 µM (inactive) | 24.4 µM (inactive) | 7.64 µM (inactive) | 36.1 µM (inactive) | 4.98 µM | 17.6 µM (inactive) | 16.4 µM (inactive) | 36.5 µM (inactive) | 9.53 µM (inactive) | 26.9 µM (inactive) | 6.25 µM (inactive) | 11.8 µM (inactive) | 35.2 µM (inactive) | 8.34 µM (inactive) | 40.7 µM (inactive) | 40 µM (inactive) | 50.9 µM (inactive) | 16 µM (inactive) | –
12 | COC(=O)/C=C(/OC)[C@H](C)[C@H](/C=C/c1csc(-c2csc(C(C)C)n2)n1)OC | 0.124 µM (active) | > 100 µM (inactive) | – | > 100 µM (inactive) | 0.721 µM (active) | 0.0975 µM | 5.97 µM (inactive) | 0.426 µM (active) | – | < 0.0177 µM (active) | 0.785 µM (active) | 0.0703 µM (active) | 0.0838 µM (active) | 0.647 µM (active) | 0.284 µM (active) | 0.455 µM (active) | 10.3 µM (inactive) | 0.416 µM (active) | 0.703 µM (active) | > 62.1 µM (inactive)
13 | c1ccc(CSCCc2ccncc2)cc1 | > 100 µM (inactive) | > 100 µM (inactive) | > 100 µM (inactive) | – | 67.9 µM (inactive) | > 100 µM | > 100 µM (inactive) | > 100 µM (inactive) | > 100 µM (inactive) | > 100 µM (inactive) | > 100 µM (inactive) | > 100 µM (inactive) | > 100 µM (inactive) | > 100 µM (inactive) | > 100 µM (inactive) | 53 µM (inactive) | > 100 µM (inactive) | 44 µM (inactive) | > 100 µM (inactive) | > 100 µM (inactive)
14 | N#C/C(=C/n1c(=S)[nH]c2ccccc21)C(N)=O | > 100 µM (inactive) | > 100 µM (inactive) | > 100 µM (inactive) | > 100 µM (inactive) | > 100 µM (inactive) | > 100 µM | > 100 µM (inactive) | > 100 µM (inactive) | – | > 100 µM (inactive) | > 100 µM (inactive) | > 100 µM (inactive) | > 100 µM (inactive) | > 100 µM (inactive) | > 100 µM (inactive) | > 100 µM (inactive) | > 100 µM (inactive) | > 100 µM (inactive) | > 100 µM (inactive) | > 100 µM (inactive)
15 | COc1cc2ccccc2oc1=O | 63 µM (inactive) | > 100 µM (inactive) | > 100 µM (inactive) | 57.3 µM (inactive) | 51.1 µM (inactive) | > 100 µM | > 100 µM (inactive) | > 100 µM (inactive) | 77.6 µM (inactive) | > 100 µM (inactive) | > 100 µM (inactive) | 67.3 µM (inactive) | > 100 µM (inactive) | 51.6 µM (inactive) | > 100 µM (inactive) | > 100 µM (inactive) | > 100 µM (inactive) | > 100 µM (inactive) | 39 µM (inactive) | –
